Where a name gives a salt, the structure may show the parent alone.
Test system: von Bezold-Jarisch reflex evoked by 5-HT
Assay: Antagonism of the von Bezold-Jarisch reflex evoked by 5-HT in the anaesthetised rat
Type: in vivo
Settings: iv, anaesthetised male rats, compounds given intravenously, dose reducing the 5-HT-evoked (usually 6µg/kg i.v.) heart rate response to 50% of control, read-out: ED₅₀
Procedure: The compounds were evaluated for antagonism of the von Bezold-Jarisch reflex evoked by 5-HT in the anaesthetised rat according to the following method:
Male rats 250-350g, were anaesthetised with urethane (1.25g/kg intraperitoneally) and blood pressure and heart rate recorded as described by Fozard J.R. et al., J. Cardiovasc. Pharmacol. 2, 229-245 (1980). A submaximal dose of 5-HT (usually 6µg/kg) was given repeatedly by the intravenous route and changes in heart rate quantified. Compounds were given intravenously and the concentration required to reduce the 5 HT-evoked response to 50% of the control response (ED₅₀) was then determined.

Structure (SMILES)	ED50 [µg/kg]
CN1[C@@H]2CCC[C@H]1C[C@@H](NC(=O)c1nn(C)c3ccccc13)C2 [Compound 2, N-(Endo-9-methyl-9-azabicyclo[3,3,1]non-3-yl)-1-methylindazole-3-carboxamide monohydrochloride]	0.7
CN1[C@@H]2CC[C@H]1C[C@@H](OC(=O)c1nn(C)c3ccccc13)C2 [Compound 1, 1-Methyl-3-indazolecarboxylic acid (endo-8-methyl-8-azabicyclo[3,2,1]oct-3-yl)ester monohydrochloride]	1.4

From patent EP0223385B1, “8-Azabicyclo[3,2,1]octane and 9-azabicyclo[3,3,1]nonane derivatives” (BEECHAM GROUP PLC, priority 1985, dated 1987)
